Reference: patent US12226424B2, “Target protein degradation compounds, their anti-tumor use, their intermediates and use of intermediates” (ShanghaiTech University, priority 2018, dated 2025)
Where two headings read alike, the source gives them in different places.

Test system: CDK4/6 protein
Assay: Western-blot determination of CDK4/6 protein degradation (DC50) in T-47D cells
Type: cell-based, human
[1] = 24 h drug treatment, read-out: DC50(nM)/T-47D cell line
[2] = read-out: DC50(nM)/T-47D cell line, 24 h drug treatment

Structure (SMILES) | DC50 [1] [nM] | DC50 [2] [nM]
CN(C)C(=O)c1cc2cnc(Nc3ccc(N4CCN(C(=O)CCCCSc5cccc6c5C(=O)N(C5CCC(=O)NC5=O)C6=O)CC4)cn3)nc2n1C1CCCC1 (centres unmarked) [SIAIS219103, 7-cyclopentyl-2-((5-(4-(5-((2-(2,6-dioxopiperidin-3-yl)-1,3-dioxoisoindolin-4-yl)thio)pentanoyl)piperazin-1-yl)pyridin-2-yl)amino)-N,N-dimethyl-7H-pyrrolo[2,3-d]pyrimidine-6-carboxamide] | < 1 | –
CN(C)C(=O)c1cc2cnc(Nc3ccc(N4CCN(C(=O)CCCCCSc5cccc6c5C(=O)N(C5CCC(=O)NC5=O)C6=O)CC4)cn3)nc2n1C1CCCC1 (centres unmarked) [SIAIS219104, 7-cyclopentyl-2-((5-(4-(6-((2-(2,6-dioxopiperidin-3-yl)-1,3-dioxoisoindolin-4-yl)thio)hexanoyl)piperazin-1-yl)pyridin-2-yl)amino)-N,N-dimethyl-7H-pyrrolo[2,3-d]pyrimidine-6-carboxamide] | 1 to 10 | –
CN(C)C(=O)c1cc2cnc(Nc3ccc(N4CCN(C(=O)CCCCCCSc5cccc6c5C(=O)N(C5CCC(=O)NC5=O)C6=O)CC4)cn3)nc2n1C1CCCC1 (centres unmarked) [SIAIS219105, 7-cyclopentyl-2-((5-(4-(7-((2-(2,6-dioxopiperidin-3-yl)-1,3-dioxoisoindolin-4-yl)thio)heptanoyl)piperazin-1-yl)pyridin-2-yl)amino)-N,N-dimethyl-7H-pyrrolo[2,3-d]pyrimidine-6-carboxamide] | – | 0.04 to 0.2
CN(C)C(=O)c1cc2cnc(Nc3ccc(N4CCN(C(=O)COCCSc5cccc6c5CN(C5CCC(=O)NC5=O)C6=O)CC4)cn3)nc2n1C1CCCC1 (centres unmarked) [SIAIS219106, 7-cyclopentyl-2-((5-(4-(2-(2-((2-(2,6-dioxopiperidin-3-yl)-1-oxoisoindolin-4-yl)thio)ethoxy)acetyl)piperazin-1-yl)pyridin-2-yl)amino)-N,N-dimethyl-7H-pyrrolo[2,3-d]pyrimidine-6-carboxamide] | – | 0.04 to 0.2
CN(C)C(=O)c1cc2cnc(Nc3ccc(N4CCN(C(=O)COCCOCCSc5cccc6c5CN(C5CCC(=O)NC5=O)C6=O)CC4)cn3)nc2n1C1CCCC1 (centres unmarked) [SIAIS219107, 7-cyclopentyl-2-((5-(4-(2-(2-(2-((2-(2,6-dioxopiperidin-3-yl)-1-oxoisoindolin-4-yl)thio)ethoxy)ethoxy)acetyl)piperazin-1-yl)pyridin-2-yl)amino)-N,N-dimethyl-7H-pyrrolo[2,3-d]pyrimidine-6-carboxamide] | 0.04 to 0.2 | –
CN(C)C(=O)c1cc2cnc(Nc3ccc(N4CCN(C(=O)COCCOCCOCCSc5cccc6c5CN(C5CCC(=O)NC5=O)C6=O)CC4)cn3)nc2n1C1CCCC1 (centres unmarked) [SIAIS219108, 7-cyclopentyl-2-((5-(4-(2-(2-(2-(2-((2-(2,6-dioxopiperidin-3-yl)-1-oxoisoindolin-4-yl)thio)ethoxy)ethoxy)ethoxy)acetyl)piperazin-1-yl)pyridin-2-yl)amino)-N,N-dimethyl-7H-pyrrolo[2,3-d]pyrimidine-6-carboxamide] | 0.04 to 0.2 | –
CN(C)C(=O)c1cc2cnc(Nc3ccc(N4CCN(C(=O)COCCOCCOCCOCCSc5cccc6c5CN(C5CCC(=O)NC5=O)C6=O)CC4)cn3)nc2n1C1CCCC1 (centres unmarked) [SIAIS219109, 7-cyclopentyl-2-((5-(4-(14-((2-(2,6-dioxopiperidin-3-yl)-1-oxoisoindolin-4-yl)thio)-3,6,9,12-tetraoxatetradecanoyl)piperazin-1-yl)pyridin-2-yl)amino)-N,N-dimethyl-7H-pyrrolo[2,3-d]pyrimidine-6-carboxamide] | 1 to 10 | –
CN(C)C(=O)c1cc2cnc(Nc3ccc(N4CCN(C(=O)COCCOCCOCCOCCOCCSc5cccc6c5CN(C5CCC(=O)NC5=O)C6=O)CC4)cn3)nc2n1C1CCCC1 (centres unmarked) [SIAIS219110, 7-cyclopentyl-2-((5-(4-(17-((2-(2,6-dioxopiperidin-3-yl)-1-oxoisoindolin-4-yl)thio)-3,6,9,12,15-pentaoxaheptadecanoyl)piperazin-1-yl)pyridin-2-yl)amino)-N,N-dimethyl-7H-pyrrolo[2,3-d]pyrimidine-6-carboxamide] | 0.04 to 0.2 | –
CN(C)C(=O)c1cc2cnc(Nc3ccc(N4CCN(C(=O)COCCSc5cccc6c5C(=O)N(C5CCC(=O)NC5=O)C6=O)CC4)cn3)nc2n1C1CCCC1 (centres unmarked) [SIAIS219111, 7-cyclopentyl-2-((5-(4-(2-(2-((2-(2,6-dioxopiperidin-3-yl)-1,3-dioxoisoindolin-4-yl)thio)ethoxy)acetyl)piperazin-1-yl)pyridin-2-yl)amino)-N,N-dimethyl-7H-pyrrolo[2,3-d]pyrimidine-6-carboxamide] | – | < 1
CN(C)C(=O)c1cc2cnc(Nc3ccc(N4CCN(C(=O)COCCOCCSc5cccc6c5C(=O)N(C5CCC(=O)NC5=O)C6=O)CC4)cn3)nc2n1C1CCCC1 (centres unmarked) [SIAIS219112, 7-cyclopentyl-2-((5-(4-(2-(2-(2-((2-(2,6-dioxopiperidin-3-yl)-1,3-dioxoisoindolin-4-yl)thio)ethoxy)ethoxy)acetyl)piperazin-1-yl)pyridin-2-yl)amino)-N,N-dimethyl-7H-pyrrolo[2,3-d]pyrimidine-6-carboxamide] | 0.04 to 0.2 | –
CN(C)C(=O)c1cc2cnc(Nc3ccc(N4CCN(C(=O)COCCOCCOCCSc5cccc6c5C(=O)N(C5CCC(=O)NC5=O)C6=O)CC4)cn3)nc2n1C1CCCC1 (centres unmarked) [SIAIS219113, 7-cyclopentyl-2-((5-(4-(2-(2-(2-(2-((2-(2,6-dioxopiperidin-3-yl)-1,3-dioxoisoindolin-4-yl)thio)ethoxy)ethoxy)ethoxy)acetyl)piperazin-1-yl)pyridin-2-yl)amino)-N,N-dimethyl-7H-pyrrolo[2,3-d]pyrimidine-6-carboxamide] | < 1 | –
CN(C)C(=O)c1cc2cnc(Nc3ccc(N4CCN(C(=O)COCCOCCOCCOCCSc5cccc6c5C(=O)N(C5CCC(=O)NC5=O)C6=O)CC4)cn3)nc2n1C1CCCC1 (centres unmarked) [SIAIS219114, 7-cyclopentyl-2-((5-(4-(14-((2-(2,6-dioxopiperidin-3-yl)-1,3-dioxoisoindolin-4-yl)thio)-3,6,9,12-tetraoxatetradecanoyl)piperazin-1-yl)pyridin-2-yl)amino)-N,N-dimethyl-7H-pyrrolo[2,3-d]pyrimidine-6-carboxamide] | 1 to 10 | –
Cc1nc2c(F)cc(-c3nc(Nc4ccc(CN5CCN(C(=O)CSc6cccc7c6CN(C6CCC(=O)NC6=O)C7=O)CC5)cn4)ncc3F)cc2n1C(C)C (centres unmarked) [SIAIS262164, 3-(4-((2-(4-((6-((5-fluoro-4-(4-fluoro-1-isopropyl-2-methyl-1H-benzo[d]imidazol-6-yl)pyrimidin-2-yl)amino)pyridin-3-yl)methyl)piperazin-1-yl)-2-oxoethyl)thio)-1-oxoisoindolin-2-yl)piperidine-2,6-dione] | 0.5 to 5 | –
Cc1nc2c(F)cc(-c3nc(Nc4ccc(CN5CCN(C(=O)CCSc6cccc7c6CN(C6CCC(=O)NC6=O)C7=O)CC5)cn4)ncc3F)cc2n1C(C)C (centres unmarked) [SIAIS262165, 3-(4-((3-(4-((6-((5-fluoro-4-(4-fluoro-1-isopropyl-2-methyl-1H-benzo[d]imidazol-6-yl)pyrimidin-2-yl)amino)pyridin-3-yl)methyl)piperazin-1-yl)-3-oxopropyl)thio)-1-oxoisoindolin-2-yl)piperidine-2,6-dione] | 5 | –
Cc1nc2c(F)cc(-c3nc(Nc4ccc(CN5CCN(C(=O)CCCSc6cccc7c6CN(C6CCC(=O)NC6=O)C7=O)CC5)cn4)ncc3F)cc2n1C(C)C (centres unmarked) [SIAIS262166, 3-(4-((4-(4-((6-((5-fluoro-4-(4-fluoro-1-isopropyl-2-methyl-1H-benzo[d]imidazol-6-yl)pyrimidin-2-yl)amino)pyridin-3-yl)methyl)piperazin-1-yl)-4-oxobutyl)thio)-1-oxoisoindolin-2-yl)piperidine-2,6-dione] | 0.5 to 5 | –
Cc1nc2c(F)cc(-c3nc(Nc4ccc(CN5CCN(C(=O)CCCCSc6cccc7c6CN(C6CCC(=O)NC6=O)C7=O)CC5)cn4)ncc3F)cc2n1C(C)C (centres unmarked) [SIAIS262167, 3-(4-((5-(4-((6-((5-fluoro-4-(4-fluoro-1-isopropyl-2-methyl-1H-benzo[d]imidazol-6-yl)pyrimidin-2-yl)amino)pyridin-3-yl)methyl)piperazin-1-yl)-5-oxopentyl)thio)-1-oxoisoindolin-2-yl)piperidine-2,6-dione] | 0.5 to 5 | –
Cc1nc2c(F)cc(-c3nc(Nc4ccc(CN5CCN(C(=O)CCCCCSc6cccc7c6CN(C6CCC(=O)NC6=O)C7=O)CC5)cn4)ncc3F)cc2n1C(C)C (centres unmarked) [SIAIS262168, 3-(4-((6-(4-((6-((5-fluoro-4-(4-fluoro-1-isopropyl-2-methyl-1H-benzo[d]imidazol-6-yl)pyrimidin-2-yl)amino)pyridin-3-yl)methyl)piperazin-1-yl)-6-oxohexyl)thio)-1-oxoisoindolin-2-yl)piperidine-2,6-dione] | 0.05 to 0.5 | –
Cc1nc2c(F)cc(-c3nc(Nc4ccc(CN5CCN(C(=O)CCCCCCSc6cccc7c6CN(C6CCC(=O)NC6=O)C7=O)CC5)cn4)ncc3F)cc2n1C(C)C (centres unmarked) [SIAIS262169, 3-(4-((7-(4-((6-((5-fluoro-4-(4-fluoro-1-isopropyl-2-methyl-1H-benzo[d]imidazol-6-yl)pyrimidin-2-yl)amino)pyridin-3-yl)methyl)piperazin-1-yl)-7-oxoheptyl)thio)-1-oxoisoindolin-2-yl)piperidine-2,6-dione] | 5 | –
Cc1nc2c(F)cc(-c3nc(Nc4ccc(CN5CCN(C(=O)CCCCCCCCCCSc6cccc7c6CN(C6CCC(=O)NC6=O)C7=O)CC5)cn4)ncc3F)cc2n1C(C)C (centres unmarked) [SIAIS262170, 3-(4-((11-(4-((6-((5-fluoro-4-(4-fluoro-1-isopropyl-2-methyl-1H-benzo[d]imidazol-6-yl)pyrimidin-2-yl)amino)pyridin-3-yl)methyl)piperazin-1-yl)-11-oxoundecyl)thio)-1-oxoisoindolin-2-yl)piperidine-2,6-dione] | 50 | –
Cc1nc2c(F)cc(-c3nc(Nc4ccc(CN5CCN(C(=O)COCCSc6cccc7c6CN(C6CCC(=O)NC6=O)C7=O)CC5)cn4)ncc3F)cc2n1C(C)C (centres unmarked) [SIAIS262171, 3-(4-((2-(2-(4-((6-((5-fluoro-4-(4-fluoro-1-isopropyl-2-methyl-1H-benzo[d]imidazol-6-yl)pyrimidin-2-yl)amino)pyridin-3-yl)methyl)piperazin-1-yl)-2-oxoethoxy)ethyl)thio)-1-oxoisoindolin-2-yl)piperidine-2,6-dione] | 0.5 | –
